Molecules are shown by their SMILES. Active and inactive are the calls of the source.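 How the source made its calls: active means fitted half-maximal concentration for changing reporter fluorescence at or below a set limit; inactive means the rest.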

One assay deals with Citrate synthase, peroxisomal (Saccharomyces cerevisiae (strain ATCC 204508 / S288c)) (UniProt P08679). Description: yeast TOR pathway CIT2-GFP reporter potency – flow cytometry, MLPCN hits, dose response (AID 2744). The conditions noted are these: S. cerevisiae CIT2-GFP strain, 3 h, at 33 µM (top of the series). In general terms: Flow cytometry measures light scatter and fluorescence of single cells or particles in a stream.
Sequence of Citrate synthase, peroxisomal (Saccharomyces cerevisiae (strain ATCC 204508 / S288c)) (P08679 whole entry, looked up): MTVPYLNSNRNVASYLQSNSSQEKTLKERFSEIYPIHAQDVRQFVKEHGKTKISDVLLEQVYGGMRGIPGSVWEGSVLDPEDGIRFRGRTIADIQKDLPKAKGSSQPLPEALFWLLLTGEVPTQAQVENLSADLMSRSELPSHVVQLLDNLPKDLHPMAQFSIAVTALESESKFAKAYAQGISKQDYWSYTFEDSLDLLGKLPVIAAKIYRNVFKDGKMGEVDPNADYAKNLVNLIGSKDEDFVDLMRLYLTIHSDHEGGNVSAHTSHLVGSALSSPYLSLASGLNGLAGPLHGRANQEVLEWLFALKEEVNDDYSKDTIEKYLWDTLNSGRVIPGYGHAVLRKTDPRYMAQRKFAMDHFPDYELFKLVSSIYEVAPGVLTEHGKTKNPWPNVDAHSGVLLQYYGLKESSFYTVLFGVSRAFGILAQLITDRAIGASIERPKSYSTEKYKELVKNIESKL
Regarding `Cc1ccc(/C=C2\C(=O)NC(=S)N(c3ccc(F)cc3)C2=O)s1`, the “GFP fluorescence, higher = induction” value was “inactive”. Turning to `COc1cccc(/C=N/Nc2ncc(C(F)(F)F)cc2Cl)c1O`, the “GFP fluorescence, higher = induction” value was “inactive”. For `CCC(=O)Nc1ccc(NC(=O)c2cc3ccccc3o2)cc1`, the “GFP fluorescence, higher = induction” value is “inactive”. The same measure, in the same setting: next, `COc1ccc(C2=CC(=O)N(Nc3ccccc3)C2=O)cc1`: “inactive”; `CCc1cccc2sc(N3CCN(C(=O)c4ccc([N+](=O)[O-])o4)CC3)nc12`: “inactive”. Still for that read-out and setting: next, `Nc1ccc2ccc3cccc[n+]3c2c1`: “inactive”; `COc1cccc(/C=N/Nc2ccc([N+](=O)[O-])cn2)c1O`: “inactive”; `COc1ccccc1C(=O)NNC(=S)NC(=O)c1cccs1`: “inactive”. Still for that read-out and setting: next, `O=C(/C=C/c1ccc(Cl)c([N+](=O)[O-])c1)c1cccnc1`: “inactive”; `O=C1NC(=O)N(c2ccccc2)C(=O)/C1=C/c1ccc(Sc2ccccc2)o1`: “inactive”. Turning to `COc1cc(N2C(=O)C=CC2=O)c(OC)cc1Cl`, the “GFP fluorescence, higher = induction” value was “inactive”. The same measure, in the same setting: next, `CN1CCN(C(=O)c2cc(COc3c(F)cccc3F)on2)CC1c1ccccc1` (centres undefined): “inactive”; `Cc1cccnc1Nc1nc(-c2ccccn2)cs1`: “inactive”; `Cc1ccc(C(=O)Oc2oc(-c3ccco3)nc2C=Nc2ccc(Cl)cc2)cc1`: “inactive”. Still for that read-out and setting: next, `COc1cc(NC(=O)c2ccc(C)cc2)ccc1NC(=O)c1cc2ccccc2o1`: “inactive”; `Cc1ccc(/C=C2/C(=O)ON=C2c2ccccc2)o1`: “inactive”; `CC(=O)NN1C(=O)/C(=C/c2ccc(Br)o2)SC1=S`: “inactive”. Still for that read-out and setting: next, `CCN(CC)c1ccc2cc(-c3nc4ccccc4[nH]3)c(=O)oc2c1`: “inactive”. As to `O=C1C=CC(=O)N1c1ccc(Sc2ccc([N+](=O)[O-])cc2)cc1`, the “GFP fluorescence, higher = induction” value is “inactive”. Turning to `CN1CCN(C(c2ccc(C(F)(F)F)cc2)c2ccc3cccnc3c2O)CC1` (centres undefined), the “GFP fluorescence, higher = induction” value was “inactive”. Same read-out and setting: next, `CCOC(=O)CS(=O)(=O)c1nc(-c2ccc(F)cc2)cc(C(F)(F)F)n1`: “inactive”; `CNC(CC(=O)c1ccc([N+](=O)[O-])cc1)C(Cl)(Cl)Cl` (centres undefined): “inactive”; `O=c1oc2cc(Oc3c([N+](=O)[O-])cc(C(F)(F)F)cc3[N+](=O)[O-])ccc2c2c1CCCC2`: “inactive”. Still for that read-out and setting: next, `CC(C)Cn1c(=O)c(C(=O)Nc2ccncc2)c(O)c2ccccc21`: “inactive”; `O=C(Oc1c(Cl)cc(Cl)c2cccnc12)c1ccco1`: “inactive”. Same read-out and setting: next, `O/C=c1\ccc2cccc3nc(C(F)(F)F)nc1c23`: “inactive”. Regarding `Cc1ccc(NC(=O)c2cc(N3C(=O)C=CC3=O)ccc2N2CCOCC2)cc1Cl`, the “GFP fluorescence, higher = induction” value was “inactive”. Same read-out and setting: next, `COc1ccc2c(/C=C/c3cc[n+](C)cc3)c[nH]c2c1`: “inactive”; `O=S(=O)(/N=C(\Sc1ccc(Cl)cc1)c1ccccc1)c1ccccc1`: “inactive”. The same measure, in the same setting: next, `CCOC(=O)COc1ccc2ccccc2c1/C=C/[N+](=O)[O-]`: “inactive”; `COC(CNC(=O)c1ccc2c3c(onc13)-c1ccccc1C2=O)OC`: “inactive”. Same read-out and setting: next, `O=C1N(c2ccccc2C(F)(F)F)O[C@@]1(c1ccccc1)C1CCCCC1`: “inactive”. With `CC(C)C[C@]1(c2ccccc2)ON(c2ccccc2C(F)(F)F)C1=O`, the “GFP fluorescence, higher = induction” value is “inactive”. The same measure, in the same setting: next, `O=[N+]([O-])c1ccc(-c2cn3nc(-c4ccccc4)c(-c4ccccc4)nc3n2)cc1`: “inactive”.

With `Cc1ccc(S(=O)(=O)c2ncccc2[N+](=O)[O-])cc1`, the “GFP fluorescence, higher = induction” value was “inactive”.

Regarding `COc1ccc([C@@]2(C(C)C)ON(c3ccccc3C(F)(F)F)C2=O)cc1`, the “GFP fluorescence, higher = induction” value is “inactive”. Consider `CCn1c(/C=C/c2ccc([N+](=O)[O-])o2)nc2ccccc2c1=O`, for which the “GFP fluorescence, higher = induction” value is “inactive”. The same measure, in the same setting: next, `Cc1cc2ccccn2c1C(=O)c1ccc([N+](=O)[O-])o1`: “inactive”. On the same count and under the same terms, next, `Cc1ccc(S(=O)(=O)N2CCCC2C(=O)NCc2ccncc2)cc1` (centres undefined): “inactive”; `O=c1c2cnn(-c3ccccc3)c2ncn1Cc1ccco1`: “inactive”; `Cc1cccc(N2C(=O)C(Cl)=C(Nc3c(C)n(C)n(-c4ccccc4)c3=O)C2=O)c1C`: “inactive”. Same read-out and setting: next, `O=c1c2sc(-c3ccccc3)cc2nc2n1CCC2`: “inactive”; `O=[N+]([O-])c1cc(F)c2cccnc2c1O`: “inactive”.

`CC[C@@]1(c2ccccc2OC)ON(c2ccccc2C(F)(F)F)C1=O`: the “GFP fluorescence, higher = induction” value is “inactive”. Still for that read-out and setting: next, `O=C(/C=C/c1ccccc1[N+](=O)[O-])c1ccccc1Br`: “inactive”; `O=C1NC(=S)NC(=O)C1=Cc1ccc2c(c1)CCN2CCCCl`: “inactive”. Same read-out and setting: next, `O=C1C=CC(=O)N1c1ccc(O)cc1`: “inactive”. The same measure, in the same setting: next, `O=C(Nc1ccc(Cl)cc1Cl)c1cccc(N2C(=O)C=CC2=O)c1`: “inactive”; `CC(c1ccccc1)N1C(=O)/C(=C/c2ccncc2)SC1=S` (centres undefined): “inactive”. Take `O=C(NC(=S)NNC(=O)[C@H]1C[C@@H]1c1ccccc1)c1cccc(F)c1`: the “GFP fluorescence, higher = induction” value is “inactive”. On the same count and under the same terms, next, `O=C1NC(=O)C(=Cc2ccc(-c3ccc(Cl)cc3)o2)C(=O)N1`: “inactive”. The same measure, in the same setting: next, `Cc1ccc2nc(/C(C#N)=C/c3ccc(O)c(O)c3)[nH]c2c1`: “inactive”; `O=C(C#Cc1ccccc1)c1cccc([N+](=O)[O-])c1`: “inactive”; `CCOC(=O)CCS(=O)(=O)c1nc(-c2ccccc2)cc(C(F)(F)F)n1`: “inactive”. As to `O=C(Oc1cccc2cccnc12)c1ccc(Br)o1`, the “GFP fluorescence, higher = induction” value was “inactive”. With `Oc1ccc2ccccc2c1/C=N/Nc1nnc(-c2ncc[nH]2)c2ccccc12`, the “GFP fluorescence, higher = induction” value is “inactive”. Still for that read-out and setting: next, `CCn1c(=O)c(C(=O)Nc2nc3ccccc3[nH]2)c(O)c2ccccc21`: “inactive”; `CC1(C)OC(c2ccccc2)=C/C(=C/C=C2C(=O)NC(=S)NC2=O)O1`: “inactive”; `COc1cccc2cc(-c3nc4ccccc4o3)c(=O)oc12`: “inactive”. On the same count and under the same terms, next, `COc1cc(/C=C/c2ccc3c(Br)cc(Br)c(O)c3n2)ccc1O`: “inactive”. On the same count and under the same terms, next, `C=CCN1C(=O)/C(=C/c2cccs2)C(=O)NC1=S`: “inactive”; `Cc1ccc(NC(=O)CCc2ccccc2)cc1S(=O)(=O)N1CCOCC1`: “inactive”. With `COC(=O)CCS(=O)(=O)c1nc(-c2ccccc2)cc(C(F)(F)F)n1`, the “GFP fluorescence, higher = induction” value is “inactive”. The same measure, in the same setting: next, `N#Cc1nccnc1S(=O)(=O)c1cccs1`: “inactive”. On the same count and under the same terms, next, `O=C(NCc1ccc2c(c1)OCO2)c1nc(S(=O)(=O)Cc2ccccc2)ncc1Cl`: “inactive”; `O=C(c1ccc([N+](=O)[O-])o1)N1CCN(c2nc3c(F)cc(F)cc3s2)CC1`: “inactive”. On the same count and under the same terms, next, `Cc1ccc(C(=O)Oc2oc(-c3ccccc3)nc2C=Nc2ccc(N(C)C)cc2)cc1`: “inactive”. On to `O=C(O)c1ccc2c(c1)C(=O)/C(=C/c1ccccc1)C2=O`, for which the “GFP fluorescence, higher = induction” value is “inactive”.

With `CC(=O)Oc1cccc(N2C(=O)c3cccc4c([N+](=O)[O-])ccc(c34)C2=O)c1`, the “GFP fluorescence, higher = induction” value was “inactive”. Still for that read-out and setting: next, `Cc1ccc(/C=C2\C(=O)NC(=S)N(c3ccccc3F)C2=O)s1`: “inactive”; `COc1cc(NC(=O)c2ccccc2[N+](=O)[O-])ccc1NC(=O)c1cc2ccccc2o1`: “inactive”. On the same count and under the same terms, next, `O=C(c1ccccn1)c1conc1C(=O)c1ccc(Br)cc1`: “inactive”; `Cc1cccc(Nc2nc(-c3ccccn3)cs2)n1`: “inactive”. Still for that read-out and setting: next, `Nc1nc(N)c2nc(CNc3ccc(C(=O)NC(CCC(=O)O)C(=O)O)cc3)cnc2n1` (centres undefined): “inactive”; `O=C(Nc1cccc(C(F)(F)F)c1)Oc1ccc(Cl)c2cccnc12`: “inactive”; `COCCN1C(=O)/C(=C/c2ccc(N3CCCC3)cc2C)SC1=S`: “inactive”.

With `COc1cc(C=C2C(=O)c3ccccc3C2=O)cc(OC)c1`, the “GFP fluorescence, higher = induction” value was “inactive”.

Turning to `Cc1ccc2[nH]c(C)c(/C=C/c3cc[n+](C)cc3)c2c1`, the “GFP fluorescence, higher = induction” value is “inactive”. Turning to `NC(=O)COc1ccc(C(=O)/C=C2/C(=O)Nc3ccccc32)cc1`, the “GFP fluorescence, higher = induction” value was “inactive”. The same measure, in the same setting: next, `CC[C@]1(c2ccccc2C)ON(c2ccccc2C(F)(F)F)C1=O`: “inactive”; `O=c1cc(-c2ccccc2)cc(-c2ccccc2)n1O`: “inactive”. On the same count and under the same terms, next, `CCCCCCCCn1sccc1=O`: “inactive”.

The assay is the same for the next values; noted with them: S. cerevisiae CIT2-GFP strain, flow cytometry fluorescence, 3 h.
In the case of `CCCOc1ccc(C(=O)NNC(=S)NC(=O)CC)cc1`, the 50% effective concentration (EC50) is 3.1 µM. On the same count and under the same terms, next, `Cc1ccc(/C=C/C(=O)c2ccccc(=O)c2O)c(C)c1`: 14.7 µM.

In general, EC50 refers to the midpoint of the concentration-response curve.

The record behind these values is PubChem BioAssay AID2744 (NMMLSC, 2010).
